Test: Corn greenhouse trial: uptake of Compound 2 into leaves from coated seeds
Conditions: corn (maize), in vivo
Experimental: Plant leaves were macerated using a Geno/Grinder 2000 bead beater homogenizer (SPEX CertiPrep, Metuchen, N.J., USA), and then acetonitrile (˜5 mL/g of leaf tissue) was added. The mixture was further shaken for 1 minute using the Geno/Grinder homogenizer, and then centrifuged. The acetonitrile extract supernatant was analyzed by high performance liquid chromatography with tandem mass spectrometry detection (HPLC/MS/MS) using a Waters (Milford, Mass. USA) Alliance HT2795 chromatograph and Zorbax SB C18 (2.1×50 mm, 5 microns) column eluted with mixtures of water and acetonitrile containing 0.1% (volume/volume) of formic acid, with detection by a Waters Quattro Micro API Mass Spectrometer using electrospray ionization (ESI+). Standard solutions of Compound 1 and Compound 2 were prepared by adding measured amounts of stock solutions of Compound 1 or Compound 2 in acetonitrile or tetrahydrofuran to acetonitrile extracts of leaves from plants grown from untreated seeds.
For corn and Compound 2, a 1:1 weight ratio of nonionic fatty alcohol ethoxylate with Compound 2 was prepared with each additive by mixing the appropriate amount of either 16.7 wt % or 20.0 wt % solution in water of the nonionic fatty alcohol ethoxylate with 1.0 g of Compound 2.
Into a FlackTek™ Max 100 disposable plastic cup were placed 35.0 grams (100 seeds) of corn seeds. […]

For `CNC(=O)c1cc(Cl)cc(C)c1NC(=O)c1cc(Br)nn1-c1ncccc1Cl` [Compound 2, 3-bromo-N-[4-chloro-2-methyl-6-[(methylamino)carbonyl]phenyl]-1-(3-chloro-2-pyridinyl)-1H-pyrazole-5-carboxamide], the “Uptake microgram/g of leaf” value was 0.42 microgram/g of leaf.
